According to ChEMBL document CHEMBL5042542, “Discovery of Non-Nucleotide Small-Molecule STING Agonists via Chemotype Hybridization” (J Med Chem, 2022):

Experiments:
[1] = in vitro; conditions: rat, liver microsomes
[2] = in vitro; conditions: mouse, liver microsomes
[3] = in vitro; conditions: human, liver microsomes

Row | SMILES | remaining at 10 min, 0.5 µM [1] | remaining at 10 min, 0.5 µM [2] | remaining at 10 min, 0.5 µM [3]
1 | O=C(NCc1cc2cc(Cl)c3oc(=O)[nH]c(=O)c3c2o1)c1cnn2cccnc12 | 69% | 57% | 54%
2 | O=C(O)c1c(O)c(Cl)cc2cc(CNC(=O)c3cnn4cccnc34)oc12 | 88% | 93% | 98%
3 | O=C(O)c1ccc2oc(CNC(=O)c3cnn4cccnc34)cc2c1 | 100% | 88% | 100%
4 | O=C(O)c1cc(Cl)cc2cc(CNC(=O)c3cnn4cccnc34)oc12 | 100% | 100% | 100%
5 | COC(=O)c1cccc2cc(CN3Cc4ccncc4C3=O)oc12 | 7% | 11% | 0%
6 | Cn1c(CNC(=O)c2cnn3cccnc23)nc2c(C(=O)O)cccc21 | 89% | 85% | 95%
7 | C[C@H](NC(=O)c1cnn2cccnc12)c1cc2cc(Cl)cc(C(=O)O)c2o1 | 94% | 100% | 100%

Next, values leading:

Row | remaining at 10 min, 0.5 µM [1] | remaining at 10 min, 0.5 µM [2] | remaining at 10 min, 0.5 µM [3] | SMILES
8 | 81% | > 100% | 22% | CCn1nc(C)cc1C(=O)Nc1nc2cc(C(N)=O)cc(OC)c2n1C/C=C/Cn1c(NC(=O)c2cc(C)nn2CC)nc2cc(C(N)=O)cc(OCCCN3CCOCC3)c21
9 | 100% | 100% | 100% | O=C(O)c1ccc2cc(CNC(=O)c3cnn4cccnc34)oc2c1
10 | 100% | 96% | 98% | O=C(O)c1cccc2cc(Cn3ccc4ccncc4c3=O)oc12
11 | 91% | 92% | 98% | O=C(O)c1c(F)ccc2cc(CNC(=O)c3cnn4cccnc34)oc12
12 | 89% | 80% | 96% | O=C(NCc1cc2cc(Cl)cc(-c3nn[nH]n3)c2o1)c1cnn2cccnc12
13 | 91% | 85% | 99% | O=C(O)c1cccc2c(Cl)c(CNC(=O)c3cnn4cccnc34)oc12
14 | 96% | 97% | 94% | O=C(O)c1cccc2cc(CNC(=O)c3cnn4cccnc34)oc12
15 | 64% | 65% | 92% | O=C(NCc1cc2cc(Cl)cc(C(=O)O)c2o1)c1cncc2cccnc12
16 | 100% | 89% | 100% | Cc1ccc2c(=O)c3cccc(CC(=O)O)c3oc2c1C [VADIMEZAN]
